# From ChEMBL document CHEMBL6127119 (J Med Chem, 2024)
# Legend:
# Assay type in all cases: functional
# Details in all cases: time 16-24 hrs
# [1] = tested on: Escherichia coli; assay: Potency index, ratio of Norvancomycin MIC to test compound MIC for Escherichia coli […] incubated for 16 to 24 hrs by CLSI based broth microdilution method
# [2] = tested on: Enterococcus faecium; assay: Potency index, ratio of Vancomycin MIC to test compound MIC for vancomycin-resistant Enterococcus faecium incubated for 16 to 24 hrs by CLSI based broth microdilution method
# [3] = tested on: Staphylococcus aureus; assay: Potency index, ratio of Norvancomycin MIC to test compound MIC for vancomycin-intermediate Staphylococcus aureus incubated for 16 to 24 hrs by CLSI based broth microdilution method
# [4] = tested on: Enterococcus faecium; assay: Antibacterial activity against vancomycin-resistant Enterococcus faecium harboring VanB phenotype incubated for 16 to 24 hrs by CLSI based broth microdilution method
# [5] = tested on: Staphylococcus aureus; assay: Potency index, ratio of Vancomycin MIC to test compound MIC for vancomycin-intermediate Staphylococcus aureus incubated for 16 to 24 hrs by CLSI based broth microdilution method
# [6] = tested on: Enterococcus faecium; assay: Antibacterial activity against vancomycin-resistant Enterococcus faecium harboring VanM phenotype incubated for 16 to 24 hrs by CLSI based broth microdilution method
# [7] = tested on: Klebsiella pneumoniae; assay: Antibacterial activity against Klebsiella pneumoniae clinical isolate incubated for 16 to 24 hrs by CLSI based broth microdilution method
# [8] = tested on: Acinetobacter baumannii; assay: Potency index, ratio of Vancomycin MIC to test compound MIC for Carbapenem-resistant Acinetobacter baumannii clinical isolate incubated for 16 to 24 hrs by CLSI based broth microdilution method
# [9] = tested on: Enterococcus faecium; assay: Potency index, ratio of Norvancomycin MIC to test compound MIC for vancomycin-resistant Enterococcus faecium incubated for 16 to 24 hrs by CLSI based broth microdilution method
# [10] = tested on: Escherichia coli; assay: Potency index, ratio of Vancomycin MIC to test compound MIC for Escherichia coli […] incubated for 16 to 24 hrs by CLSI based broth microdilution method
# [11] = tested on: Staphylococcus aureus; assay: Antibacterial activity against vancomycin-intermediate Staphylococcus aureus incubated for 16 to 24 hrs by CLSI based broth microdilution method
# [12] = tested on: Enterococcus faecium; assay: Antibacterial activity against vancomycin-resistant Enterococcus faecium harboring VanA phenotype incubated for 16 to 24 hrs by CLSI based broth microdilution method
# [13] = tested on: Acinetobacter baumannii; assay: Potency index, ratio of Norvancomycin MIC to test compound MIC for Carbapenem-resistant Acinetobacter baumannii clinical isolate incubated for 16 to 24 hrs by CLSI based broth microdilution method
# [14] = tested on: Staphylococcus aureus; assay: Antibacterial activity against methicillin-susceptible Staphylococcus aureus incubated for 16 to 24 hrs by CLSI based broth microdilution method
# [15] = tested on: Escherichia coli; assay: Antibacterial activity against Escherichia coli AB1157 incubated for 16 to 24 hrs by CLSI based broth microdilution method
# [16] = tested on: Acinetobacter baumannii; assay: Antibacterial activity against Carbapenem-resistant Acinetobacter baumannii clinical isolate incubated for 16 to 24 hrs by CLSI based broth microdilution method
# [17] = tested on: Pseudomonas aeruginosa; assay: Antibacterial activity against Pseudomonas aeruginosa PAO1 incubated for 16 to 24 hrs by CLSI based broth microdilution method
Structure (SMILES),Ratio [1],Ratio [2],Ratio [3],MIC [4],Ratio [5],MIC [6],MIC [7],Ratio [8],Ratio [9],Ratio [10],MIC [11],MIC [12],Ratio [13],MIC [14],MIC [15],MIC [16],MIC [17]
CN[C@H](CC(C)C)C(=O)N[C@H]1C(=O)N[C@@H](CC(N)=O)C(=O)N[C@H]2C(=O)N[C@H]3C(=O)N[C@H](C(=O)N[C@H](C(=O)NCCc4ccc(-c5ccc(CNC(=N)N)cc5)cc4)c4cc(O)cc(O)c4-c4cc3ccc4O)[C@H](O)c3ccc(c(Cl)c3)Oc3cc2cc(c3O[C@@H]2O[C@H](CO)[C@@H](O)[C@H](O)[C@H]2O[C@H]2C[C@](C)(N)[C@H](O)[C@H](C)O2)Oc2ccc(cc2Cl)[C@H]1O,2,2,2,4 µg/mL,2,2 µg/mL,> 128 µg/mL,2,2,2,0.5 µg/mL,2 µg/mL,2,0.125 µg/mL,8 µg/mL,64 µg/mL,–
CN[C@H](CC(C)C)C(=O)N[C@H]1C(=O)N[C@@H](CC(N)=O)C(=O)N[C@H]2C(=O)N[C@H]3C(=O)N[C@H](C(=O)N[C@H](C(=O)NCc4ccc(-c5ccc(CNC(=N)N)cc5)cc4)c4cc(O)cc(O)c4-c4cc3ccc4O)[C@H](O)c3ccc(c(Cl)c3)Oc3cc2cc(c3O[C@@H]2O[C@H](CO)[C@@H](O)[C@H](O)[C@H]2O[C@H]2C[C@](C)(N)[C@H](O)[C@H](C)O2)Oc2ccc(cc2Cl)[C@H]1O,2,2,2,1 µg/mL,2,2 µg/mL,> 128 µg/mL,2,2,2,0.5 µg/mL,2 µg/mL,2,0.125 µg/mL,8 µg/mL,32 µg/mL,–
CN[C@H](CC(C)C)C(=O)N[C@H]1C(=O)N[C@@H](CC(N)=O)C(=O)N[C@H]2C(=O)N[C@H]3C(=O)N[C@H](C(=O)N[C@H](C(=O)NCc4ccc(-c5ccc(CCNC(=N)N)cc5)cc4)c4cc(O)cc(O)c4-c4cc3ccc4O)[C@H](O)c3ccc(c(Cl)c3)Oc3cc2cc(c3O[C@@H]2O[C@H](CO)[C@@H](O)[C@H](O)[C@H]2O[C@H]2C[C@](C)(N)[C@H](O)[C@H](C)O2)Oc2ccc(cc2Cl)[C@H]1O,2,2,2,1 µg/mL,2,2 µg/mL,> 128 µg/mL,2,2,2,0.5 µg/mL,2 µg/mL,2,0.25 µg/mL,8 µg/mL,16 µg/mL,–
CC(C)C[C@@H](N)C(=O)N[C@H]1C(=O)N[C@@H](CC(N)=O)C(=O)N[C@H]2C(=O)N[C@H]3C(=O)N[C@H](C(=O)N[C@H](C(=O)NCc4ccc(-c5ccc(CN)cc5)cc4)c4cc(O)cc(O)c4-c4cc3ccc4O)[C@H](O)c3ccc(c(Cl)c3)Oc3cc2cc(c3O[C@@H]2O[C@H](CO)[C@@H](O)[C@H](O)[C@H]2O[C@H]2C[C@](C)(N)[C@H](O)[C@H](C)O2)Oc2ccc(cc2Cl)[C@H]1O,–,–,–,8 µg/mL,–,8 µg/mL,> 128 µg/mL,–,–,–,1 µg/mL,8 µg/mL,–,≤ 0.063 µg/mL,16 µg/mL,128 µg/mL,> 128 µg/mL
CC(C)C[C@@H](N)C(=O)N[C@H]1C(=O)N[C@@H](CC(N)=O)C(=O)N[C@H]2C(=O)N[C@H]3C(=O)N[C@H](C(=O)N[C@H](C(=O)NCCN)c4cc(O)cc(O)c4-c4cc3ccc4O)[C@H](O)c3ccc(c(Cl)c3)Oc3cc2cc(c3O[C@@H]2O[C@H](CO)[C@@H](O)[C@H](O)[C@H]2O[C@H]2C[C@](C)(N)[C@H](O)[C@H](C)O2)Oc2ccc(cc2Cl)[C@H]1O,–,–,–,128 µg/mL,–,128 µg/mL,> 128 µg/mL,–,–,–,4 µg/mL,128 µg/mL,–,2 µg/mL,32 µg/mL,128 µg/mL,> 128 µg/mL
CC(C)C[C@@H](N)C(=O)N[C@H]1C(=O)N[C@@H](CC(N)=O)C(=O)N[C@H]2C(=O)N[C@H]3C(=O)N[C@H](C(=O)N[C@H](C(=O)NCc4ccc(-c5ccccc5CN)cc4)c4cc(O)cc(O)c4-c4cc3ccc4O)[C@H](O)c3ccc(c(Cl)c3)Oc3cc2cc(c3O[C@@H]2O[C@H](CO)[C@@H](O)[C@H](O)[C@H]2O[C@H]2C[C@](C)(N)[C@H](O)[C@H](C)O2)Oc2ccc(cc2Cl)[C@H]1O,–,–,–,4 µg/mL,–,4 µg/mL,> 128 µg/mL,–,–,–,0.5 µg/mL,8 µg/mL,–,0.25 µg/mL,8 µg/mL,16 µg/mL,32 µg/mL
